We go through 15 compounds from patent US9227971B2, “Pyrazolo[1,5-a]pyrimidine compounds as mTOR inhibitors” (Merck Sharp & Dohme Corp., priority 2010, dated 2016).

Like-named read-outs stand apart in the source and are kept apart here.

Assay [1] has as its system phosphorylated AKT Ser473 (pAKT S473), mTORC2 activity, PC3 cells. Description: mTOR target engagement assay, immunofluorescent cell-based, pAKT S473 readout (mTORC2 activity). The following applies: Homo sapiens. The essentials: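 After blocking, cells were stained overnight at 4 °C with anti-pAKT S473 antibody, then a fluorescent secondary; inhibition was read as reduced fluorescence intensity.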

The subject of assay [2] is phosphorylated 4E-BP1 Thr37/46 (p4E-BP1 Thr37/46), mTORC1 activity, PC3 cells. Description: mTOR target engagement assay, immunofluorescent cell-based, p4E-BP1 Thr37/46 readout (mTORC1 activity). The conditions noted are these: Homo sapiens, read-out: p4E-BP1 Thr37/46 IC50. In a few lines: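 PTEN-mutant PC3 prostate cells were treated with serially diluted compound in 5% FBS F12 medium (0.25% DMSO) for ninety minutes at 37° C, glyoxal-fixed, then immunostained overnight at 4° C for p4E-BP1 Thr37/46 with an Alexa Fluor 488 secondary. IC50 came from four-parameter fits of fluorescence, DMSO-only wells defining 100%.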

Setting [3] is: PC-3, PC3 cells, compound treatment ninety minutes at 37° C.

On to `Cn1ccc(-c2ccc(-c3cnn4c(N)c(S(C)(=O)=O)c([C@@H]5C[C@H]6CC[C@@H](C5)N6C(=O)c5cn[nH]n5)nc34)cn2)n1` [Compound 3.174, ((1R,3s,5S)-3-(7-amino-3-(6-(1-methyl-1H-pyrazol-3-yl)pyridin-3-yl)-6-(methylsulfonyl)pyrazolo[1,5-a]pyrimidin-5-yl)-8-azabicyclo[3.2.1]octan-8-yl)(2H-1,2,3-triazol-4-yl)methanone], for which the IC50 is 0.1 to 1 µM in assay [1] (PC-3, Table 3-1, PC3 cells) and 0.1 to 1 µM in assay [2] (PC-3, Table 3-1, PC3 cells).

In the case of `Cc1cnc(-c2ccc(-c3cnn4c(N)c(S(C)(=O)=O)c([C@H]5CC6CC[C@H](C5)N6C(=O)c5cn[nH]n5)nc34)cn2)s1` [Compound 3.181, ((1R,3s,5S)-3-(7-amino-6-(methylsulfonyl)-3-(6-(5-methylthiazol-2-yl)pyridin-3-yl)pyrazolo[1,5-a]pyrimidin-5-yl)-8-azabicyclo[3.2.1]octan-8-yl)(2H-1,2,3-triazol-4-yl)methanone], the IC50 in assay [1] (PC-3, Table 3-1, PC3 cells) was in the range of 0.1 to 1 µM; in assay [2] (PC-3, Table 3-1, PC3 cells) it was 0.001 to 0.1 µM.

On to `CCCC(O)c1ccc(-c2cnn3c(N)c(S(C)(=O)=O)c([C@@H]4C[C@H]5CC[C@@H](C4)N5C(=O)c4nnc[nH]4)nc23)cn1` (stereo partly drawn) [Compound 7.25, ((1R,3s,5S)-3-(7-amino-3-(6-(1-hydroxybutyl)pyridin-3-yl)-6-(methylsulfonyl)pyrazolo[1,5-a]pyrimidin-5-yl)-8-azabicyclo[3.2.1]octan-8-yl)(4H-1,2,4-triazol-3-yl)methanone], for which the IC50 in assay [1] (PC-3, Table 7-2, PC3 cells) fell in the range of 1 to 10 µM; in assay [2] (PC-3, Table 7-2, PC3 cells), 1 to 10 µM.

`CC(=O)c1c([C@@H]2C[C@H]3CC[C@@H](C2)N3C(=O)c2cc[nH]n2)nc2c(-c3ccc(C(O)C(F)(F)F)nc3)cnn2c1N` (stereo partly drawn) [Compound 7.66, 1-(5-((1R,3s,5S)-8-(1H-pyrazole-3-carbonyl)-8-azabicyclo[3.2.1]octan-3-yl)-7-amino-3-(6-(2,2,2-trifluoro-1-hydroxyethyl)pyridin-3-yl)pyrazolo[1,5-a]pyrimidin-6-yl)ethanone]: the IC50 in assay [1] (PC-3, PC3 cells) was in the range of 1 to 10 µM; in assay [2] (PC-3, PC3 cells), 0.1 to 1 µM.

Take `COc1ccc(-c2ccc(-c3cnn4c(N)c(S(C)(=O)=O)c([C@@H]5C[C@H]6CC[C@@H](C5)N6C(=O)CO)nc34)cn2)cc1F` [Compound 3.38, 1-((1R,3s,5S)-3-(7-amino-3-(6-(3-fluoro-4-methoxyphenyl)pyridin-3-yl)-6-(methylsulfonyl)pyrazolo[1,5-a]pyrimidin-5-yl)-8-azabicyclo[3.2.1]octan-8-yl)-2-hydroxyethanone]: the IC50 was 0.001 to 0.1 µM in assay [1] (PC-3, Table 3-1, PC3 cells) and 0.1 to 1 µM in assay [2] (PC-3, Table 3-1, PC3 cells).

Regarding `CC(C)(O)c1ccc(-c2cnn3c(N)c(C4CC4)c([C@@H]4C[C@H]5CC[C@@H](C4)N5C(=O)c4nnc[nH]4)nc23)cn1` [Compound 7.39, ((1R,3s,5S)-3-(7-amino-6-cyclopropyl-3-(6-(2-hydroxypropan-2-yl)pyridin-3-yl)pyrazolo[1,5-a]pyrimidin-5-yl)-8-azabicyclo[3.2.1]octan-8-yl)(4H-1,2,4-triazol-3-yl)methanone], the IC50 in assay [1] (PC-3, Table 7-8, PC3 cells) was in the range of 0.001 to 0.1 µM; in assay [2] (PC-3, Table 7-8, PC3 cells) it was 0.001 to 0.1 µM.

For the compound `N#Cc1ncc(-c2cnn3c(N)cc([C@@H]4C[C@H]5CC[C@@H](C4)N5C(=O)c4nnc[nH]4)nc23)cn1` [Compound 8.95, 5-(5-((1R,3s,5S)-8-(4H-1,2,4-triazole-3-carbonyl)-8-azabicyclo[3.2.1]octan-3-yl)-7-aminopyrazolo[1,5-a]pyrimidin-3-yl)pyrimidine-2-carbonitrile], the IC50 is > 10 µM in assay [1] (PC-3, PC3 cells) and > 10 µM in assay [2] (PC-3, PC3 cells).

For `CS(=O)(=O)c1c([C@@H]2C[C@H]3CC[C@@H](C2)N3C(=O)CO)nc2c(-c3ccc(C4(O)CCCC4)nc3)cnn2c1N` [Compound 7.47, 1-((1R,3s,5S)-3-(7-amino-3-(6-(1-hydroxycyclopentyl)pyridin-3-yl)-6-(methylsulfonyl)pyrazolo [1,5-a]pyrimidin-5-yl)-8-azabicyclo[3.2.1]octan-8-yl)-2-hydroxyethanone], the IC50 fell in the range of 0.1 to 1 µM in assay [1] (PC-3, Table 7-8, PC3 cells) and 0.1 to 1 µM in assay [2] (PC-3, Table 7-8, PC3 cells).

Consider `CC(=O)c1c([C@@H]2C[C@H]3CC[C@@H](C2)N3C(=O)c2nnc[nH]2)nc2c(-c3cncc(CO)c3)cnn2c1N` [Compound 1.1.184, 1-(5-((1R,3s,5S)-8-(4H-1,2,4-triazole-3-carbonyl)-8-azabicyclo[3.2.1]octan-3-yl)-7-amino-3-(5-(hydroxymethyl)pyridin-3-yl)pyrazolo[1,5-a]pyrimidin-6-yl)ethanone], for which the IC50 in assay [1] (setting [3]) and in assay [2] (setting [3]) was 0.1 to 1 µM in each case.

For `N#Cc1ncc(-c2cnn3c(N)c(C4CC4)c([C@@H]4C[C@H]5CC[C@@H](C4)N5C(=O)c4nnc[nH]4)nc23)cn1` [Compound 8.96, 5-(5-((1R,3s,5S)-8-(4H-1,2,4-triazole-3-carbonyl)-8-azabicyclo[3.2.1]octan-3-yl)-7-amino-6-cyclopropylpyrazolo[1,5-a]pyrimidin-3-yl)pyrimidine-2-carbonitrile], the IC50 was 1 to 10 µM in assay [1] (PC-3, PC3 cells) and 1 to 10 µM in assay [2] (PC-3, PC3 cells).

Consider `CC(=O)c1c(N2C3CCC2CN(C(=O)CO)C3)nc2c(-c3ccc(-c4ccccc4)nc3)cnn2c1N` [Compound 8.7, 1-(8-(6-acetyl-7-amino-3-(6-phenylpyridin-3-yl)pyrazolo[1,5-a]pyrimidin-5-yl)-3,8-diazabicyclo[3.2.1]octan-3-yl)-2-hydroxyethanone], for which the IC50 was in the range of 0.1 to 1 µM in assay [1] (PC-3, PC3 cells) and 1 to 10 µM in assay [2] (PC-3, PC3 cells).

As for `CNC(=O)N1[C@@H]2CC[C@H]1C[C@H](c1nc3c(-c4ccc(-c5ncc[nH]5)nc4)cnn3c(N)c1C(C)=O)C2` [Compound 6.24, (1R,3s,5S)-3-(3-(6-(1H-imidazol-2-yl)pyridin-3-yl)-6-acetyl-7-aminopyrazolo[1,5-a]pyrimidin-5-yl)-N-methyl-8-azabicyclo[3.2.1]octane-8-carboxamide], the IC50 in assay [1] (PC-3, Table 6-1, PC3 cells) was 0.001 to 0.1 µM; in assay [2] (PC-3, Table 6-1, PC3 cells) it was 0.001 to 0.1 µM.

For `CC(=O)c1c([C@@H]2C[C@H]3CC[C@@H](C2)N3C(=O)c2nnc(C)[nH]2)nc2c(-c3ccc(-c4ccc(F)cc4F)nc3)cnn2c1N` [Compound 1.1.165, 1-(7-amino-3-(6-(2,4-difluorophenyl)pyridin-3-yl)-5-((1R,3s,5S)-8-(5-methyl-4H-1,2,4-triazole-3-carbonyl)-8-azabicyclo[3.2.1]octan-3-yl)pyrazolo[1,5-a]pyrimidin-6-yl)ethanone], the IC50 in assay [1] (setting [3]) and in assay [2] (setting [3]) was 0.001 to 0.1 µM each time.

Take `Cn1ccc(-c2ccc(-c3cnn4c(N)c(C5CC5)c([C@@H]5C[C@H]6CC[C@@H](C5)N6C(=O)CO)nc34)cn2)n1` [Compound 4.18, 1-((1R,3s,5S)-3-(7-amino-6-cyclopropyl-3-(6-(1-methyl-1H-pyrazol-3-yl)pyridin-3-yl)pyrazolo[1,5-a]pyrimidin-5-yl)-8-azabicyclo[3.2.1]octan-8-yl)-2-hydroxyethanone]: the IC50 in assay [1] (setting [3]) and in assay [2] (setting [3]) was 0.001 to 0.1 µM each time.

`CNC(=O)Nc1ccc(-c2cnn3c(N)c(C(C)=O)c([C@@H]4C[C@H]5CC[C@@H](C4)N5C(=O)c4nnc[nH]4)nc23)cc1` [Compound 8.85, 1-(4-(5-((1R,3s,5S)-8-(4H-1,2,4-triazole-3-carbonyl)-8-azabicyclo[3.2.1]octan-3-yl)-6-acetyl-7-aminopyrazolo[1,5-a]pyrimidin-3-yl)phenyl)-3-methylurea]: the IC50 lay within 0.001 to 0.1 µM in assay [1] (PC-3, PC3 cells) and 0.1 to 1 µM in assay [2] (PC-3, PC3 cells).
